For ten compounds, EC50 results are on record in patent US9932311B2, “Antidiabetic tricyclic compounds” (Merck Sharp & Dohme Corp., priority 2013, dated 2018).

pEC50: −log10 of the molar value.

Holding throughout (format): cell-based
Test [1] deals with T1, Human GPR40 (Homo sapiens, UniProt O14842). Description: Inositol Phosphate Turnover (IP1) Assay 2. Set-up: expressed in transfected cells; host or cells: HEK cells stably expressing the aequorin reporter. The note with it: HEK cells stably expressing human GPR40, 384-well, CisBio IP-One kit. As for the experimental part: The assay was performed in 384-well format. HEK cells stably expressing human GPR40 were plated at 15,000 cells per well in growth medium (DMEM/10% fetal calf serum). Cell plates were then incubated 16 hours at 37 degrees in a 5% CO2 incubator.
T1 sequence (O14842 whole entry): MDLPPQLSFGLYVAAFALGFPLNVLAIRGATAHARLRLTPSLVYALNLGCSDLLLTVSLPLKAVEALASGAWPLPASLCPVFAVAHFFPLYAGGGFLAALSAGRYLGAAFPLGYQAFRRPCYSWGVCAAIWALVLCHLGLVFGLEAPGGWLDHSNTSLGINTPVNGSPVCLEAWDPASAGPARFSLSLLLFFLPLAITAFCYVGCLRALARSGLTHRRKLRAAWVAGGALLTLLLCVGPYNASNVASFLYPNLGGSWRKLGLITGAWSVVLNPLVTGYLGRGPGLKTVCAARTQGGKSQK
Measurement of Inositol Phosphate Turnover (IP1) was performed using the CisBio IP-One kit (Part number 62IPAPEB). After the 16 hour incubation, the cells were washed with HEPES buffer and 10 ul of stimulation buffer (prepared as described in the kit) was added to each well. In a separate plate, compounds were diluted in DMSO (400-fold over the final concentration in the assay well) and 25 nl was acoustically transferred to the appropriate well in the assay cell plate. The plates were then incubated for 60 minutes at 37 degrees. 10 ul of detection buffer (also prepared as described in the IP-One kit) was added to each well and the plates were incubated for 60 minutes in the dark. The plates were then read in a Perkin Elmer EnVision or equivalent reader able to measure FRET. Fluorescent ratio of emission at 665 and 620 nm was then converted to IP1 concentration by back calculating from an IP1 standard curve prepared at the time of the assay.

Test [2] has as its target T1, Human GPR40. Nature of the test: Inositol Phosphate Turnover (IP1) Assay 1. The note with it: HEK cells stably expressing human GPR40, 96-well, 3H-inositol labeling, SPA beads. Set-up: expressed in transfected cells; host or cells: HEK cells stably expressing the aequorin reporter. As for the experimental part:
(§1) Human and mouse GPR40 stable cell-lines were generated in CHO cells stably expressing NFAT BLA (Beta-lactamase). A human GPR40 stable cell-line was generated in HEK cells stably expressing the aequorin expressing reporter. The expression plasmids were transfected using lipofectamine (Life Technologies) following manufacturer's instructions. Stable cell-lines were generated following drug selection.
The assay was performed in 96-well format. HEK cells stably expressing human GPR40 were plated to be 60-80% confluent within 72 h. After 72 h, the plates were aspirated and the cells washed with inositol-free DMEM (ICN). The wash media was replaced with 150 μL of 3H-inositol labeling media (inositol-free media containing 0.4% human albumin or 0.4% mouse albumin, 1× pen/strep antibiotics, glutamine, 25 mM HEPES to which was added 3H-myo-inositol NEN #NET114A 1 mCi/mL, 25 Ci/mmol diluted 1:150 in loading media with a final specific radioactivity of 1 μCi/150 μL). Alternatively, the human and mouse albumin can be added after the overnight labeling step before the addition of LiCl.
The assay was typically run the next day after 18 h labeling. On the day of the assay, 5 μL of 300 mM LiCl was added to all wells and incubated at 37 degrees for 20 min 0.75 μL of 200× compounds were added and incubated with the cells for 60 min at 37 degrees. The media was then aspirated off and the assay terminated with the addition of 60 μL 10 mM formic acid. The cells were lysed for 60 min at room temperature. 15-30 μL of lysate was mixed with 70 μL/1 mg YSi SPA beads (Amersham) in clear bottom Isoplates. The plates were shaken for 2 h at room temperature. Beads were allowed to settle and the plates were counted in the Wallac Microbeta.

In test [3] the target is T1, Human GPR40. Description: FLIPR assay (agonist-induced calcium mobilization). More on the design: expressed in transfected cells. The note with it: GPR40/CHO NFAT BLA cells. The procedure: as §1
FLIPR (Fluorimetric Imaging Plate Reader, Molecular Devices) assays were performed to measure agonist-induced calcium mobilization of the stable clones. For the FLIPR assay, one day before assay, GPR40/CHO NFAT BLA cells were seeded into black-wall-clear-bottom 384-well plates (Costar) at 1.4×10e4 cells/20 μL medium/well. The cells were incubated with 20 μl/well of the assay buffer (HBSS, 0.1% BSA, 20 mM HEPES, 2.5 mM probenecid, pH 7.4) containing 8 μM fluo-4, AM, 0.08% pluronic acid at room temperature for 100 minutes. Fluorescence output was measured using FLIPR. Compounds were dissolved in DMSO and diluted to desired concentrations with assay buffer. 13.3 μL/well of compound solution was added.

`Cc1cc(CCC(C)(O)CO)cc(C)c1-c1cc(COc2cc3c(cn2)[C@H]2[C@@H](C3)[C@@H]2C(=O)O)c(F)cc1F` (stereo partly drawn) [Example 23, (5aR,6S,6aS)-3-((4′-(3,4-dihydroxy-3-methylbutyl)-4,6-difluoro-2′,6′-dimethyl-[1,1′-biphenyl]-3-yl)methoxy)-5,5a,6,6a-tetrahydrocyclopropa[4,5]cyclopenta[1,2-c]pyridine-6-carboxylic acid]: the pEC50 at Human GPR40 [1] was 8.28.
Consider `Cc1cc(OCC[C@@H](O)CO)cc(C)c1-c1cc(COc2cc3c(cn2)[C@H]2[C@@H](C3)[C@@H]2C(=O)O)c(F)cc1F` [Example 25, (5aR,6S,6aS)-3-((4′-((R)-3,4-dihydroxy-butoxy)-4,6-difluoro-2′,6′-dimethyl-[1,1′-biphenyl]-3-yl)methoxy)-5,5a,6,6a-tetrahydrocyclo-propa[4,5]cyclopenta [1,2-c]pyridine-6-carboxylic acid], for which the pEC50 on Human GPR40 [2] is 8.33; at Human GPR40 [1], 8.42.
For `Cc1cc(OCCC(C)(O)C(F)F)nc(C)c1-c1cc(COc2cc3c(cn2)C2[C@@H](C3)[C@@H]2C(=O)O)c(F)cc1F` (stereo in doubt) [Example 17, (5aR,6S,6aR)-3-((5-(6-(4,4-difluoro-3-hydroxy-3-methyl-butoxy)-2,4-di-methylpyridin-3-yl)-2,4-difluorobenzyl)oxy)-5,5a,6,6a-tetra-hydrocyclopropa[4,5] cyclopenta[1,2-c] pyridine-6-carboxylic acid], the pEC50 on Human GPR40 [1] is 8.68.
On the same count and under the same terms, for `C[C@@](O)(CO)CCOc1ccc(-c2cc(COc3cc4c(cn3)[C@H]3[C@@H](C4)[C@@H]3C(=O)O)c(F)cc2F)c(Cl)c1` [Example 21, (5aR,6S,6aS)-3-((2′-chloro-4′-((S)-3,4-dihydroxy-3-methyl-butoxy)-4,6-di-fluoro-[1,1′-biphenyl]-3-yl)methoxy)-5,5a,6,6a-tetrahydrocyclopropa [4,5]cyclopenta[1,2-c] pyridine-6-carboxylic acid] the value was 8.66; for `Cc1nc(OCCC(C)(O)CO)ccc1-c1cc(COc2cc3c(cn2)[C@H]2[C@@H](C3)[C@@H]2C(=O)O)c(F)cc1C(F)(F)F` (stereo partly drawn) [Example 20, (5aR,6S,6aS)-3-((5-(6-(3,4-dihydroxy-3-methyl-butoxy)-2-methylpyridin-3-yl)-2-fluoro-4-(tri-fluoro-methyl)benzyl)-oxy)-5,5a,6,6a-tetra-hydro-cyclopropa[4,5]-cyclopenta[1,2-c]-pyridine-6-carboxylic acid], 8.51.
Still for that read-out and setting: for `Cc1cc(OCC(C(C)(C)O)C(C)(C)O)cc(C)c1-c1cc(COc2cc3c(cn2)[C@H]2[C@@H](C3)[C@@H]2C(=O)O)c(F)cc1F` [Example 22, (5aR,6S,6aS)-3-((4,6-difluoro-4′-(3-hydroxy-2-(2-hydroxypropan-2-yl)-3-methylbutoxy)-2′,6′-dimethyl-[1,1′-biphenyl]-3-yl)methoxy)-5,5a,6,6a-tetrahydrocyclopropa[4,5]cyclopenta[1,2-c]pyridine-6-carboxylic acid] the value was 8.51; for `Cc1cc(OCCC(C)(O)CO)cc(C)c1-c1cc(COc2cc3c(cn2)[C@H]2[C@@H](C3)[C@@H]2C(=O)O)c(F)cc1F` (stereo partly drawn) [Example 19, (5aR,6S,6aS)-3-((4′-(3,4-dihydroxy-3-methyl-butoxy)-4,6-difluoro-2′,6′-dimethyl-[1,1′-biphenyl]-3-yl)methoxy)-5,5a,6,6a-tetrahydro-cyclopropa[4,5]-cyclopenta[1,2-c] pyridine-6-carboxylic acid], 8.80.
Regarding `CC(C)(O)CCOc1ccc(-c2cc(COc3cc4c(cn3)[C@H]3[C@@H](C4)[C@@H]3C(=O)O)c(F)cc2C(F)(F)F)cc1` [Example 5, (5aR,6S,6aS)-3-((4-fluoro-4′-(3-hydroxy-3-methylbutoxy)-6-(trifluoromethyl)-[1,1′-biphenyl]-3-yl)methoxy)-5,5a,6,6a-tetrahydrocyclopropa[4,5]cyclopenta[1,2-c]pyridine-6-carboxylic acid], the pEC50 at Human GPR40 [3] is 7.60; on Human GPR40 [2], 8.20.
`Cc1cc(OCC[C@@H](O)CO)c(F)cc1-c1cc(COc2cc3c(cn2)[C@H]2[C@@H](C3)[C@@H]2C(=O)O)c(F)cc1Cl` [Example 26, (5aR,6S,6aS)-3-((6-chloro-4′-((R)-3,4-dihydroxybutoxy)-4,5,-difluoro-2′-methyl-[1,1′-biphenyl]-3-yl)methoxy)-5,5a,6,6a-tetrahydrocyclo-propa[4,5]cyclopenta [1,2-c]pyridine-6-carboxylic acid] showed a pEC50 on Human GPR40 [1] of 9.15.
Take `Cc1cc(OCC[C@H](O)CO)cc(C)c1-c1cc(COc2cc3c(cn2)[C@H]2[C@@H](C3)[C@@H]2C(=O)O)c(F)cc1F` [Example 24, Sodium (5aR,6S,6aS)-3-((4′-((S)-3,4-dihydroxybutoxy)-4,6-difluoro-2′,6′-dimethyl-[1,1′-biphenyl]-3-yl)methoxy)-5,5a,6,6a-tetrahydrocyclopropa[4,5]cyclopenta[1,2-c]pyridine-6-carboxylate]: the pEC50 is 8.34 at Human GPR40 [2] and 8.89 on Human GPR40 [1].
